Results: patent publication US20240376163A1, “PEPTIDE FOR INHIBITING CALCINEURIN AND USE THEREOF” (Seoul National University R&DB Foundation, priority 2023, published 2024)

Test system: Jurkat T cells
Experiment: mRNA sequencing of activated Jurkat T cells
Format: cell-based, human
Details: Jurkat T cells, P + I

Sequence: PEITVTPPTP [CABIN1-L-1-2]
- ABTB2 FPKM: 6.382 FPKM
- ACAP1 FPKM: 26.535 FPKM
- ACSF3 FPKM: 15.621 FPKM
- ADA FPKM: 73.254 FPKM
- ADAMTS17 FPKM: 0.882 FPKM
- ADCYAP1 FPKM: 3.219 FPKM
- ADORA2A FPKM: 1.475 FPKM
- AFF2 FPKM: 3.175 FPKM
- AGK FPKM: 14.306 FPKM
- ALDH1A2 FPKM: 6.66 FPKM
- ALOX5AP FPKM: 39.735 FPKM
- ANKEF1 FPKM: 2.575 FPKM
- ANO8 FPKM: 2.721 FPKM
- ANTXR2 FPKM: 55.18 FPKM
- APH1B FPKM: 4.206 FPKM
- APOBEC3B-AS1 FPKM: 20.386 FPKM
- APOBEC3F FPKM: 7.066 FPKM
- APOBEC3G FPKM: 9.231 FPKM
- APOL1 FPKM: 4.498 FPKM
- ARHGAP4 FPKM: 16.216 FPKM
- ARHGAP25 FPKM: 2.157 FPKM
- ARHGAP31 FPKM: 11.177 FPKM
- ARHGEF3 FPKM: 8.674 FPKM
- ARPP21 FPKM: 0.7 FPKM
- ASB13 FPKM: 2.543 FPKM
- ASNS FPKM: 19.026 FPKM
- ATHL1 FPKM: 6.014 FPKM
- ATP2A3 FPKM: 36.996 FPKM
- ATP6V0A4 FPKM: 18.558 FPKM
- ATP6V1B2 FPKM: 60.661 FPKM
- ATPAF1 FPKM: 10.283 FPKM
- AVPR2 FPKM: 1.492 FPKM
- B2M FPKM: 1302.512 FPKM
- BAHCC1 FPKM: 0.873 FPKM
- BCL2A1 FPKM: 51.928 FPKM
- BCL2L1 FPKM: 41.852 FPKM
- BCL3 FPKM: 17.15 FPKM
- BCL6 FPKM: 15.55 FPKM
- BCL7A FPKM: 12.277 FPKM
- BCL11B FPKM: 3.353 FPKM
- BEND6 FPKM: 1.409 FPKM
- BIN1 FPKM: 1.968 FPKM
- BIRC3 FPKM: 58.303 FPKM
- C10orf55 FPKM: 15.779 FPKM
- C11orf74 FPKM: 0.392 FPKM
- C21orf58 FPKM: 6.073 FPKM
- CABP1 FPKM: 1.689 FPKM
- CAMK2D FPKM: 6.138 FPKM
- CARHSP1 FPKM: 14.562 FPKM
- CBFA2T3 FPKM: 11.821 FPKM
- CBLB FPKM: 7.757 FPKM
- CBS FPKM: 3.916 FPKM
- CBX2 FPKM: 2.454 FPKM
- CCDC15 FPKM: 2.926 FPKM
- CCL3 FPKM: 0.502 FPKM
- CCL3L3 FPKM: 0.079 FPKM
- CCL20 FPKM: 1.279 FPKM
- CCND3 FPKM: 25.396 FPKM
- CCNE2 FPKM: 5.206 FPKM
- CD1B FPKM: 4.733 FPKM
- CD1E FPKM: 3.521 FPKM
- CD70 FPKM: 7.606 FPKM
- CD82 FPKM: 222.109 FPKM
- CD97 FPKM: 21.496 FPKM
- CD200 FPKM: 0.094 FPKM
- CD274 FPKM: 15.92 FPKM
- CDKN1A FPKM: 62.513 FPKM
- CDKN2D FPKM: 16.801 FPKM
- CECR1 FPKM: 3.984 FPKM
- CENPM FPKM: 14.415 FPKM
- CEP70 FPKM: 12.745 FPKM
- CERKL FPKM: 10.348 FPKM
- CFLAR FPKM: 3.022 FPKM
- CHEK2 FPKM: 7.751 FPKM
- CHPF2 FPKM: 34.939 FPKM
- CHPF FPKM: 12.714 FPKM
- CHRNA3 FPKM: 3.499 FPKM
- CHST12 FPKM: 12.639 FPKM
- CNN2 FPKM: 18.455 FPKM
- COL27A1 FPKM: 5.729 FPKM
- CPD FPKM: 26.602 FPKM
- CREB3L2 FPKM: 5.857 FPKM
- CREB5 FPKM: 1.966 FPKM
- CSF1 FPKM: 2.594 FPKM
- CSF2 FPKM: 0.314 FPKM
- CXCL8 FPKM: 3.327 FPKM
- CXCL11 FPKM: 3.793 FPKM
- CXCR4 FPKM: 34.014 FPKM
- CYTH1 FPKM: 30.15 FPKM
- DBP FPKM: 1.773 FPKM
- DCBLD2 FPKM: 15.588 FPKM
- DENND5A FPKM: 37.896 FPKM
- DNAJB5 FPKM: 19.35 FPKM
- DSTYK FPKM: 3.595 FPKM
- DTL FPKM: 5.275 FPKM
- DTX1 FPKM: 3.245 FPKM
- DUSP6 FPKM: 12.914 FPKM
- DUSP10 FPKM: 12.142 FPKM
- E2F7 FPKM: 4.018 FPKM
- ECE1 FPKM: 59.384 FPKM
- EFHD2 FPKM: 234.38 FPKM
- EGR1 FPKM: 123.294 FPKM
- EGR2 FPKM: 9 FPKM
- EHBP1L1 FPKM: 5.023 FPKM
- EMP1 FPKM: 4.589 FPKM
- ETS1 FPKM: 38.627 FPKM
- FADS2 FPKM: 48.612 FPKM
- FAM64A FPKM: 6.008 FPKM
- FAT1 FPKM: 11.964 FPKM
- FBLN2 FPKM: 3.01 FPKM
- FKBP5 FPKM: 7.791 FPKM
- FLI1 FPKM: 10.752 FPKM
- FOSL1 FPKM: 12.705 FPKM
- FOSL2 FPKM: 2.362 FPKM
- FXYD5 FPKM: 42.856 FPKM
- FYN FPKM: 15.512 FPKM
- GAD1 FPKM: 2.238 FPKM
- GFOD1 FPKM: 6.312 FPKM
- GFRA1 FPKM: 0.76 FPKM
- GKAP1 FPKM: 2.927 FPKM
- GLRB FPKM: 1.354 FPKM
- GLRX FPKM: 21.013 FPKM
- GNG4 FPKM: 7.415 FPKM
- GPC2 FPKM: 4.85 FPKM
- GPR17 FPKM: 0.181 FPKM
- GPR68 FPKM: 11.224 FPKM
- GSE1 FPKM: 14.556 FPKM
- GTDC1 FPKM: 5.144 FPKM
- GXYLT2 FPKM: 4.24 FPKM
- GZMB FPKM: 909.046 FPKM
- HCAR1 FPKM: 7.943 FPKM
- HIVEP3 FPKM: 20.545 FPKM
- HLA-A FPKM: 226.558 FPKM
- HLA-B FPKM: 160.359 FPKM
- HPGD FPKM: 3.392 FPKM
- IFIT3 FPKM: 6.682 FPKM
- IKZF2 FPKM: 8.132 FPKM
- IL2 FPKM: 12.964 FPKM
- IL4R FPKM: 12.536 FPKM
- IL10RA FPKM: 3.208 FPKM
- IL15 FPKM: 3.16 FPKM
- IL15RA FPKM: 7.481 FPKM
- IL21R FPKM: 5.255 FPKM
- IL21R-AS1 FPKM: 3.991 FPKM
- IL27RA FPKM: 10.764 FPKM
- IQCJ-SCHIP1 FPKM: 1.234 FPKM
- IQGAP2 FPKM: 3.477 FPKM
- IRF1 FPKM: 152.425 FPKM
- IRF2 FPKM: 34.829 FPKM
- IRF4 FPKM: 2.092 FPKM
- IRF7 FPKM: 21.372 FPKM
- ITGA4 FPKM: 31.73 FPKM
- ITGAL FPKM: 7.674 FPKM
- ITK FPKM: 62.324 FPKM
- JAK2 FPKM: 8.45 FPKM
- KCNK1 FPKM: 13.139 FPKM
- KIAA0101 FPKM: 16.766 FPKM
- KIAA0247 FPKM: 8.83 FPKM
- KIR3DX1 FPKM: 3.992 FPKM
- KLF10 FPKM: 15.364 FPKM
- KLF12 FPKM: 4.377 FPKM
- KREMEN1 FPKM: 2.958 FPKM
- LAIR1 FPKM: 7.19 FPKM
- LDLRAD4 FPKM: 4.769 FPKM
- LEF1-AS1 FPKM: 2.388 FPKM
- LEF1 FPKM: 48.109 FPKM
- LGMN FPKM: 1.976 FPKM
- LIF FPKM: 0.231 FPKM
- LIMS2 FPKM: 4.304 FPKM
- LINC00659 FPKM: 9.828 FPKM
- LINC01260 FPKM: 7.215 FPKM
- LMNA FPKM: 2.786 FPKM
- LMO1 FPKM: 0.954 FPKM
- LOC653712 FPKM: 2.808 FPKM
- LOC100506688 FPKM: 1.704 FPKM
- LOC101926963 FPKM: 4.742 FPKM
- LOC101927497 FPKM: 10.444 FPKM
- LPAR6 FPKM: 4.344 FPKM
- LRRC8C FPKM: 11.753 FPKM
- LRRC20 FPKM: 2.839 FPKM
- LTBP4 FPKM: 9.568 FPKM
- LUCATI FPKM: 9.183 FPKM
- MAFF FPKM: 16.464 FPKM
- MAGEA4 FPKM: 3.775 FPKM
- MAL FPKM: 2.026 FPKM
- MAMLD1 FPKM: 9.949 FPKM
- MAP3K7CL FPKM: 2.03 FPKM
- MAST4 FPKM: 5.841 FPKM
- MAZ FPKM: 99.474 FPKM
- MCM2 FPKM: 23.634 FPKM
- MCTP2 FPKM: 3.187 FPKM
- METRN FPKM: 1.604 FPKM
- MFAP4 FPKM: 0.663 FPKM
- MGAT4A FPKM: 8.882 FPKM
- MICAL2 FPKM: 1.84 FPKM
- MIR22HG FPKM: 8.63 FPKM
- MIR3652 FPKM: 567.901 FPKM
- MIR6775 FPKM: 21.57 FPKM
- MIR6821 FPKM: 25.116 FPKM
